# Laboratory results from ChEMBL document CHEMBL1649077, “Synthesis and biological evaluation of aryl-phospho-indole as novel HIV-1 non-nucleoside reverse transcriptase inhibitors” (J Med Chem, 2011).
# How the values were obtained:
# [1] = Antiviral activity against wild type HIV1 BH10 with reverse transcriptase K103N/Y181C double mutant infected human MT4 cells assessed as inhibition of virus-induced cytopathogenicity; assay type: functional, cell-based, Human immunodeficiency virus type 1 BH10; details: Human immunodeficiency virus 1, MT4
# [2] = Antiviral activity against wild type HIV1 BH10 infected human MT4 cells assessed as inhibition of virus-induced cytopathogenicity; assay type: functional, cell-based, Human immunodeficiency virus type 1 BH10; details: Human immunodeficiency virus 1, MT4
# [3] = Antiviral activity against wild type HIV1 BH10 with reverse transcriptase K103N single mutant infected human MT4 cells assessed as inhibition of virus-induced cytopathogenicity; assay type: functional, cell-based, Human immunodeficiency virus type 1 BH10; details: Human immunodeficiency virus 1, MT4
# [4] = Antiviral activity against wild type HIV1 BH10 with reverse transcriptase Y181C single mutant infected human MT4 cells assessed as inhibition of virus-induced cytopathogenicity; assay type: functional, cell-based, Human immunodeficiency virus type 1 BH10; details: Human immunodeficiency virus 1, MT4
# [5] = Metabolic stability of the compound in dog hepatocytes assessed as compound remaining after 4 hrs; assay type: ADME, cell-based, Canis lupus familiaris, Hepatocyte; details: read-out: Stability
# [6] = Metabolic stability of the compound in human hepatocytes assessed as compound remaining after 4 hrs; assay type: ADME, cell-based, Hepatocyte; details: read-out: Stability
# [7] = Half life in rat at 5 mg/kg, po; assay type: ADME, organism-based; set-up: dose 5 mg/kg, route oral; details: in vivo
# [8] = Metabolic stability of the compound in monkey hepatocytes assessed as compound remaining after 4 hrs; assay type: ADME, cell-based, Macaca mulatta, Hepatocyte; details: rhesus monkey, read-out: Stability
# [9] = Clearance in rat at 5 mg/kg, po; assay type: ADME, organism-based; set-up: dose 5 mg/kg, route oral; details: in vivo
# [10] = Oral bioavailability in rat at 5 mg/kg; assay type: ADME, organism-based; details: in vivo
# [11] = Metabolic stability of the compound in rat hepatocytes assessed as compound remaining after 4 hrs; assay type: ADME, cell-based, Hepatocyte; details: read-out: Stability
SMILES,EC50 [1] [nM],EC50 [2] [nM],EC50 [3] [nM],EC50 [4] [nM],remaining at 4 h [5] [%],remaining at 4 h [6] [%],half-life [7] [h],remaining at 4 h [8] [%],CL/F [9] [mL/min/kg],bioavailability [10] [%],remaining at 4 h [11] [%]
CCOP(=O)(c1ccccc1)c1c(C(N)=O)[nH]c2ccc(Cl)cc12 (stereo unspecified),> 1250,1.2,16.4,13.7,–,–,–,–,–,–,–
NC(=O)c1[nH]c2ccc(Cl)cc2c1P(=O)(OCc1ccccc1)c1ccccc1 (stereo unspecified),> 1250,33.7,> 1250,> 1250,–,–,–,–,–,–,–
CN(C)P(=O)(c1ccccc1)c1c(C(N)=O)[nH]c2ccc(Cl)cc12 (stereo unspecified),> 1250,13.9,> 1250,467,–,–,–,–,–,–,–
NC(=O)c1[nH]c2ccc(Cl)cc2c1P(=O)(c1ccccc1)c1ccccc1,–,> 1250,–,–,–,–,–,–,–,–,–
CP(=O)(c1ccccc1)c1c(C(N)=O)[nH]c2ccc(Cl)cc12 (stereo unspecified),> 1250,0.8,1380,266,–,–,–,–,–,–,–
NC(=O)c1[nH]c2ccc(Cl)cc2c1P(=O)(O)c1ccccc1,–,> 1250,–,–,–,–,–,–,–,–,–
COP(=S)(c1ccccc1)c1c(C(N)=O)[nH]c2ccc(Cl)cc12 (stereo unspecified),> 1250,0.4,89.9,41.4,–,–,–,–,–,–,–
CO[P@](=O)(c1ccccc1)c1c(C(N)=O)[nH]c2ccc(Cl)cc12,137,0.1,1.2,3.6,–,–,–,–,–,–,–
CO[P@@](=O)(c1ccccc1)c1c(C(N)=O)[nH]c2ccc(Cl)cc12,> 1250,182,> 1250,> 1250,–,–,–,–,–,–,–
COP(=O)(c1ccccc1)c1c(C(N)=O)[nH]c2ccc(Cl)cc12 (racemic),447,0.7,6.8,10.1,100,99,1.19,49,2.85,107,100
